Assay results as given in PubChem BioAssay AID720570 (Broad Institute, 2013).
The source made the active and inactive calls.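 How the source made its calls: active means cell-killing curve crosses a set limit at a concentration no more than twice the top valid dose; inconclusive means flat curve with a 30 to 70% loss, or a poor fit; inactive means signal rising instead of falling, and the rest.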

Assay: TC71 Ewing sarcoma cell killing, confirmation, luminescence, cherry-picked samples, retest (AID 720570)
Conditions: TC71 Ewing sarcoma viability, CellTiter-Glo ATP, 72 h; at 23.5 µM (top of the series)

| Structure (SMILES) | activity change, negative = cytotoxicity |
| --- | --- |
| COC(=O)C[C@@H]1CC[C@@H]2[C@@H](COc3ccc(NC(=O)Nc4ccccc4C)cc3C(=O)N2C)O1 | 14.2% (inactive) |

Same assay, conditions: TC71 Ewing sarcoma viability, CellTiter-Glo ATP, 72 h; at 26 µM (top of the series)

| Structure (SMILES) | activity change, negative = cytotoxicity |
| --- | --- |
| Cc1ccc(/C=C2\SC(=S)N(CCCC(=O)NNC(=O)c3ccccc3O)C2=O)cc1 | -5.43% (inactive) |
| C[C@@H]1CN([C@H](C)CO)C(=O)c2cc(NC(=O)CCCCCC(=O)Nc3ccccc3N)ccc2O[C@H]1CN(C)S(=O)(=O)c1ccc(Cl)cc1 | -12.6% (inactive) |
| O=C(NC1CCCC1)C(c1ccccc1)n1c(CSCCOc2ccccc2)nc2ccccc21 (stereo not drawn) | 3.49% (inactive) |
| C[C@H]1CN([C@@H](C)CO)C(=O)c2cccc(NC(=O)c3ccc(-c4nccs4)cc3)c2O[C@@H]1CN(C)Cc1ccc(C(=O)Nc2ccccc2N)cc1 | -30.9% (inactive) |
| COC(=O)C[C@@H]1CC[C@@H]2[C@H](COc3ccc(NC(=O)c4ccc(F)c(F)c4)cc3C(=O)N2C)O1 | 9.2% (inactive) |
| CCC(C)Cn1c(O)cc2nn(-c3nc4ccccc4s3)c(=O)c-2c1C (stereo not drawn) | -4.93% (inactive) |
| Cc1ccc(/C=C/C(=O)N2CCN(S(=O)(=O)c3c(C)c(C)cc(C)c3C)CC2)o1 | -5.96% (inactive) |
| C[C@@H]1CCCCO[C@H](CN(C)Cc2ccc(C(F)(F)F)cc2)[C@H](C)CN([C@H](C)CO)C(=O)c2cc(NC(=O)CCCN(C)C)ccc2O1 | -2.5% (inactive) |
| O=C(O)c1ccc(N/N=C/c2c[nH]c3ccccc23)cc1 | 19.2% (inactive) |
| CCc1ccc(/C=C2\SC(=S)N(CCC(=O)Nc3cc(C)on3)C2=O)cc1 | 9.95% (inactive) |
| O=c1c2ccccc2oc2cc(C#CC3(O)CCCCC3)ccc12 | -17.6% (inactive) |
| C=CCOc1ccccc1C(=O)/C=C1/C(=O)Nc2ccccc21 | -30.1% (inactive) |
| COc1ccc(Nc2ncnc3ccc(Br)cc23)c(OC)c1 | 6.89% (inactive) |
| Cc1cc(C(=O)NNC(=O)c2ccc(S(=O)(=O)N(C)C)cc2)c(C)o1 | 17.6% (inactive) |
| CCOc1ccc(N=C2C(=O)Nc3ccc(C)c(Br)c32)cc1 | 8.53% (inactive) |
| COc1ccc(/C=C2\SC(=O)N(CCCC(=O)Nc3ccc(C(=O)O)cc3)C2=O)cc1 | 21.2% (inactive) |
| O=C(CCCN1C(=O)S/C(=C\c2ccccc2)C1=O)NNC(=O)c1ccccc1O | 5.39% (inactive) |
| COc1ccc(C/C(N)=N/OC(C)=O)cc1OC | 9.15% (inactive) |
| CN(C(=O)COC(=O)c1cc(-c2ccccc2Cl)nc2ccccc12)C1CCS(=O)(=O)C1 (stereo not drawn) | 5.31% (inactive) |
| COc1ccc(NC(=O)N(C)[C@H]2C[C@H]3c4[nH]c5ccccc5c4CCN3C(=O)[C@H]2CO)cc1 | 2.92% (inactive) |
| C[C@@H]1CCCCO[C@@H](CN(C)C(=O)Cc2ccccc2)[C@@H](C)CN([C@@H](C)CO)C(=O)c2cc(NS(=O)(=O)c3ccc(F)cc3)ccc2O1 | -0.12% (inactive) |
| c1cncc(-c2ccc([C@@H]3[C@H]4CNC[C@@H]3N4CC3CCOCC3)cc2)c1 | 5.7% (inactive) |
| C=CCOC(=O)c1sc(NC(=O)c2ccc(OC)cc2)nc1C | -3.67% (inactive) |
| COc1cc(/C=N/NS(=O)(=O)c2ccc3ccccc3c2)ccc1OCc1ccc(C(=O)O)cc1 | 12.1% (inactive) |
| CCOc1cc2[nH]c(=S)n(Cc3ccc(C(=O)NCCN(CC)CC)cc3)c(=O)c2cc1OCC | 11.4% (inactive) |
| O=c1oc2cc(O)ccc2s1 | -26.8% (inactive) |

| Structure (SMILES) | activity change, negative = cytotoxicity |
| --- | --- |
| CCOc1ccc(-c2noc(CCC(=O)O)n2)cc1 | 14.8% (inactive) |
| COc1ccc(N=C2C(=O)Nc3ccc(C)c(Br)c32)cc1 | 5.89% (inactive) |
| N#C[C@@H]1[C@H](c2ccc(C#Cc3ccccc3F)cc2)[C@@H](CO)N1C(=O)c1cccnc1 | 13.1% (inactive) |
| COCCCNc1ccn2nc(-c3ccccc3)cc2n1 | -3.56% (inactive) |
| Cc1cc(C)cc(OCC(=O)OCC(=O)Nc2cc(S(=O)(=O)N3CCOCC3)ccc2C)c1 | 5.46% (inactive) |
| Cc1ccc(C(=O)CN2C(=O)c3ccccc3S2(=O)=O)cc1 | 1.85% (inactive) |
| CCCCCCN(C(=O)CCCCCN1C(=O)NC(c2ccc(Cl)cc2)C(C(=O)OCc2ccccc2)=C1C)C(C(=O)NCCCC)c1ccc(OCC(=O)OC)c(C(=O)OC)c1 (stereo not drawn) | 8.62% (inactive) |
| Cc1ccc(-c2ccc3c(c2)O[C@@H](CN(C)C(=O)Nc2ccc(F)cc2)[C@H](C)CN([C@@H](C)CO)S3(=O)=O)cc1 | -12.5% (inactive) |
| COC(=O)c1c(C)[nH]c(/C=N/Nc2ccccc2)c1C | 7.36% (inactive) |
| Cc1cc(Br)ccc1N=C1C(=O)Nc2ccccc21 | 6.85% (inactive) |
| CCN(CC)C(=O)CN1C(=O)C(=O)c2ccccc21 | 6.39% (inactive) |
| CN(C)C(=O)c1ccc(-c2ccccc2[C@@H]2[C@@H](CO)N(C(=O)C3CC3)[C@H]2C#N)cc1 | 25.5% (inactive) |
| C[C@@H]1CN([C@H](C)CO)S(=O)(=O)c2ccc(C#Cc3ccncc3)cc2O[C@@H]1CN(C)C(=O)Nc1ccc2c(c1)OCO2 | -0.54% (inactive) |
| CCNC(=O)c1cccc(S(=O)(=O)N2CCCCCC2)c1 | -7.03% (inactive) |
| O=C(O)c1ccc(N/N=C/c2ccc(OC(=O)c3cccc(Cl)c3)cc2)cc1 | -1.51% (inactive) |
| O=C(CCCN1C(=O)/C(=C/c2ccccc2Cl)SC1=S)NNC(=O)c1ccc(Cl)cc1 | -7.21% (inactive) |
| COC(=O)C[C@@H]1CC[C@@H]2[C@H](COc3ccc(NC(=O)c4ccccc4)cc3C(=O)N2C)O1 | 7.67% (inactive) |
| C[C@@H]1CN([C@H](C)CO)C(=O)c2cc(NC(=O)Nc3ccccc3)ccc2O[C@@H]1CN(C)Cc1ccc(C(=O)Nc2ccccc2N)cc1 | -33.9% (inactive) |
| CCc1ccc(N2C=C(C(=O)OC)C(c3ccc(OC)cc3)C(C#N)=C2N)cc1 (stereo not drawn) | -7.67% (inactive) |
| COC(=O)C[C@H]1CC[C@H]2[C@@H](COc3ccc(NC(=O)Nc4cccc(Cl)c4)cc3C(=O)N2C)O1 | -10.7% (inactive) |
| O=C1Nc2ccccc2C1=Nc1ccc(Br)cc1 | -5.59% (inactive) |
| C[C@@H]1CN([C@@H](C)CO)C(=O)Cc2cc(NC(=O)Cn3cnnn3)ccc2O[C@@H]1CN(C)Cc1ccc(Oc2ccccc2)cc1 | 21.2% (inactive) |
| COC(=O)C[C@@H]1CC[C@@H]2[C@@H](COc3ccc(NC(=O)Nc4cccc(F)c4)cc3C(=O)N2C)O1 | 5.61% (inactive) |
| CNC[C@H](CC1CCCCC1)NC[C@H](CO)NCCc1cccc(C(F)(F)F)c1 | 3.89% (inactive) |
| O=C(CNC(=O)Cc1ccccc1)N=Nc1c(O)n(Cc2ccc3c(c2)OCO3)c2ccccc12 | 8.54% (inactive) |
| CCCc1nc2ccc(NC(=O)c3cccs3)cc2c(=O)n1Cc1ccccc1Cl | 2.97% (inactive) |
